Biological target: T1, human GPR119 (Homo sapiens, UniProt Q8TDV5)
T1 construct: expressed in transfected cells
T1 sequence (Q8TDV5 1-335): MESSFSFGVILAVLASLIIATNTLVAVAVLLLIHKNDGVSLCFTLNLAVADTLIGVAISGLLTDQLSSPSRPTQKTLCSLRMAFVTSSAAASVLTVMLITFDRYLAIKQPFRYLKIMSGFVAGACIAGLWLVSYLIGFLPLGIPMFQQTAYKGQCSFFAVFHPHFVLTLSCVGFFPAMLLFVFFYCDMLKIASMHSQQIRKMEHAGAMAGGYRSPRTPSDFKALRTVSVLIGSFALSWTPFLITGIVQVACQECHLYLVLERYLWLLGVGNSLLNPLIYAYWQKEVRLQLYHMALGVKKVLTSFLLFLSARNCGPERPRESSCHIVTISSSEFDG
Test: Functional cellular assay measuring GPR119-mediated cAMP release (HTRF) in HEK-293 cells stably expressing recombinant GPR119
Format: cell-based
Conditions: cAMP response, cell line expressing human GPR119 (HEK-293), 30 minutes at room temperature
Protocol: Functional Cellular Assays Measuring GPR119-Mediated cAMP Release
Compounds of the invention, which are agonists of GPR119, were characterized by functional assays measuring the cAMP response of HEK-293 cell lines stably expressing recombinant GPR119 from man, mouse or rat, or by using a hamster cell line HIT-T15 expressing GPR119 endogenously. The cAMP content was determined using a kit based on homogenous time-resolved fluorescence (HTRF) from Cisbio Corp. (cat. no. 62AM4PEC). For preparation, cells were split into T175 culture flasks and grown to near confluency in medium (DMEM/10% FCS for HEK-293 cells, and F-12K medium/10% horse serum/2.5% FCS for HIT-T15 cells, respectively). Medium was then removed and cells washed with PBS lacking calcium and magnesium ions, followed by proteinase treatment with accutase (Sigma-Aldrich, cat. no. A6964). Detached cells were washed and resuspended in assay buffer (1×HBSS; 20 mM HEPES, 0.1% BSA, 2 mM IBMX) and cellular density determined. They were then diluted to 400000 cells/mL and 25 μL-aliquots dispensed to the wells of 96-well plates. For measurement, 25 μL of test compound in assay buffer was added and incubated for 30 minutes at room temperature. After addition of HTRF reagents diluted in lysis buffer, the plates were incubated for 1 hour, followed by measuring the fluorescence ratio at 665 vs. 620 nm. Potency of the agonists was quantified by determining the concentrations that caused 50% of the maximal response/activation (EC50). See Table 3 for exemplary data obtained using the cell line expressing human GPR119.

SMILES	EC50 [nM]
CN(C)C(=O)Cn1nc2ccc(N3CC[C@@H](Oc4ccc(OCC(F)(F)F)nc4)C3=O)cn2c1=O [Example 1-30, N,N-dimethyl-2-[3-oxo-6-[(3R)-2-oxo-3-[[6-(2,2,2-trifluoroethoxy)-3-pyridyl]oxy]pyrrolidin-1-yl]-[1,2,4]triazolo[4,3-a]pyridin-2-yl]acetamide]	203
CN(C)C(=O)Cn1nc2ccc(N3CC[C@@H](Oc4ccc(C(=O)CC5CC5)cc4)C3=O)cn2c1=O [Example 1-12, 2-[6-[(3R)-3-[4-(2-cyclopropylacetyl)phenoxy]-2-oxo-pyrrolidin-1-yl]-3-oxo-[1,2,4]triazolo[4,3-a]pyridin-2-yl]-N,N-dimethyl-acetamide]	269
CS(=O)(=O)Cn1nc2ccc(N3CC[C@@H](Oc4ccc(Oc5ccc(F)cc5)nc4)C3=O)cn2c1=O [Example 1-31, 6-[(3R)-3-[[6-(4-fluorophenoxy)-3-pyridyl]oxy]-2-oxo-pyrrolidin-1-yl]-2-(methylsulfonylmethyl)-[1,2,4]triazolo[4,3-a]pyridin-3-one]	365
O=C1[C@H](Oc2ccc(OCC3CC3)nc2)CCN1c1cc(F)c2n[nH]c(=O)n2c1 [Example 1-25, 6-[(3R)-3-[[6-(cyclopropylmethoxy)-3-pyridyl]oxy]-2-oxo-pyrrolidin-1-yl]-8-fluoro-2H-[1,2,4]triazolo[4,3-a]pyridin-3-one]	249
Cn1nc2ccc(N3CC[C@@H](Oc4ccc(OCC5CC5)nc4)C3=O)cn2c1=O [Example 1-23, 6-[(3R)-3-[[6-(cyclopropylmethoxy)-3-pyridyl]oxy]-2-oxo-pyrrolidin-1-yl]-2-methyl-[1,2,4]triazolo[4,3-a]pyridin-3-one]	4200
COC(=O)Cn1c(C)c2ccc(N3CC[C@@H](Oc4ccc(OCC5CC5)nc4)C3=O)cn2c1=O [Example 1-04, methyl 2-[6-[(3R)-3-[[6-(cyclopropylmethoxy)-3-pyridyl]oxy]-2-oxo-pyrrolidin-1-yl]-1-methyl-3-oxo-imidazo[1,5-a]pyridin-2-yl]acetate]	155
O=C1[C@H](Oc2ccc(Oc3ccc(F)cc3)nc2)CCN1c1cc(F)c2n[nH]c(=O)n2c1 [Example 1-10, 8-fluoro-6-[(3R)-3-[[6-(4-fluorophenoxy)-3-pyridyl]oxy]-2-oxo-pyrrolidin-1-yl]-2H-[1,2,4]triazolo[4,3-a]pyridin-3-one]	658

Other lines, results leading:

EC50 [nM]	SMILES
9920	COC(=O)Cc1cn2cc(N3CC[C@@H](Oc4ccc(OCC5CC5)nc4)C3=O)ccc2n1 [Example 1-20, methyl 2-[6-[(3R)-3-[[6-(cyclopropylmethoxy)-3-pyridyl]oxy]-2-oxo-pyrrolidin-1-yl]imidazo[1,2-a]pyridin-2-yl]acetate]
5540	COC(=O)c1nc2ccc(N3CC[C@@H](Oc4ccc(OCC5CC5)nc4)C3=O)cn2n1 [Example 1-08, methyl 6-[(3R)-3-[[6-(cyclopropylmethoxy)-3-pyridyl]oxy]-2-oxo-pyrrolidin-1-yl]-[1,2,4]triazolo[1,5-a]pyridine-2-carboxylate]
127	CN(C)C(=O)Cn1nc2ccc(N3CC[C@@H](Oc4ccc(OCC5CC5)nc4)C3=O)cc2n1 [Example 2-03, 2-[5-[(3R)-3-[[6-(cyclopropylmethoxy)-3-pyridyl]oxy]-2-oxo-pyrrolidin-1-yl]benzotriazol-2-yl]-N,N-dimethyl-acetamide]
12000	O=C(O)Cn1cc2ccc(N3CC[C@@H](Oc4ccc(OCC5CC5)nc4)C3=O)cc2n1 [Example 1-16, 2-[6-[(3R)-3-[[6-(cyclopropylmethoxy)-3-pyridyl]oxy]-2-oxo-pyrrolidin-1-yl]indazol-2-yl]acetic acid]

From patent publication US9758520B2, “Substituted fused heterocycles as GPR119 modulators for the treatment of diabetes, obesity, dyslipidemia and related disorders” (SANOFI, priority 2014, dated 2017)
